According to ChEMBL document CHEMBL1137522, “Two new phenylpiperazines with atypical antipsychotic potential” (Bioorg Med Chem Lett, 2007):
pKi: −log10 of the molar value. Calls of active or inactive are those of the source. The rule behind the calls is not given here.

What was measured:
[1] = molecular target: T1, 5-hydroxytryptamine receptor 1A (Rattus norvegicus, UniProt P19327); assay: Binding affinity at 5HT1A receptor in rat striatal membranes; assay type: cell membranes, Striatum, Membrane
T1 sequence (P19327 whole entry): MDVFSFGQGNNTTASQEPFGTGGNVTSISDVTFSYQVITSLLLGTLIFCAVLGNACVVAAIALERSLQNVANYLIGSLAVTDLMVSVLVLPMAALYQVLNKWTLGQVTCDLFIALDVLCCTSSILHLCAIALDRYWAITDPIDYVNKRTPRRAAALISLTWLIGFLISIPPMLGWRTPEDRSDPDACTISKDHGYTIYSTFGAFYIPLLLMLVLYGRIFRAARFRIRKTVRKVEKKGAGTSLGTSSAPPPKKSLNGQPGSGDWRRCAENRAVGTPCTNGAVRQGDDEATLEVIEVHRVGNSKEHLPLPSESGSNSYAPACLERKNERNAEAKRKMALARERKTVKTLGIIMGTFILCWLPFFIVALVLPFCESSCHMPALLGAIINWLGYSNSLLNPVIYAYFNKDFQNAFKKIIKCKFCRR

[2] = molecular target: 5-hydroxytryptamine receptor 2A (Rattus norvegicus, UniProt P14842); assay: Binding affinity at 5HT2A receptor in rat striatal membranes; assay type: cell membranes, Striatum, Membrane
D(2) dopamine receptor = D(2) dopamine receptor (Rattus norvegicus, UniProt P61169); assay: Binding affinity at dopamine D2 receptor in rat striatal membranes; assay type: cell membranes, Striatum, Membrane
[3] = Binding affinity at adrenergic alpha 1 receptor in rat striatal membranes; assay type: cell membranes, Striatum, Membrane
Rattus norvegicus = assay: Induction of catalepsy in Mill Hill hooded rat at 10 mg/kg after 30-180 min; assay type: organism-based; design: dose 10 mg/kg; conditions: in vivo
Mus musculus = species: Mus musculus; assay: Antagonist effect on amphetamine-induced hyperlocomotion in CPU mouse by open field test; assay type: functional, organism-based

D(2) dopamine receptor, sequence (P61169 whole entry): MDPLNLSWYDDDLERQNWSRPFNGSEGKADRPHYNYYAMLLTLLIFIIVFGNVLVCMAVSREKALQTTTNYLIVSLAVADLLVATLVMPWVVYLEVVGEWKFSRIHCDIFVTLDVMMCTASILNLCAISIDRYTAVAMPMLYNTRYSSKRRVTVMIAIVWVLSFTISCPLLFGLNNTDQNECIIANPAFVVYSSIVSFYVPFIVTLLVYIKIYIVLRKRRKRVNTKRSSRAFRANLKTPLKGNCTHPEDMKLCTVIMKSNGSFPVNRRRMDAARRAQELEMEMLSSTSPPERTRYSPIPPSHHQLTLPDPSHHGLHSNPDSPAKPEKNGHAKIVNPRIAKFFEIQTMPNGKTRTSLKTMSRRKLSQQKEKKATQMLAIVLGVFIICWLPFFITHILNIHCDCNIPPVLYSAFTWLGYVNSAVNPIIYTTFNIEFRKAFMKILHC
5-hydroxytryptamine receptor 2A, sequence (P14842 whole entry): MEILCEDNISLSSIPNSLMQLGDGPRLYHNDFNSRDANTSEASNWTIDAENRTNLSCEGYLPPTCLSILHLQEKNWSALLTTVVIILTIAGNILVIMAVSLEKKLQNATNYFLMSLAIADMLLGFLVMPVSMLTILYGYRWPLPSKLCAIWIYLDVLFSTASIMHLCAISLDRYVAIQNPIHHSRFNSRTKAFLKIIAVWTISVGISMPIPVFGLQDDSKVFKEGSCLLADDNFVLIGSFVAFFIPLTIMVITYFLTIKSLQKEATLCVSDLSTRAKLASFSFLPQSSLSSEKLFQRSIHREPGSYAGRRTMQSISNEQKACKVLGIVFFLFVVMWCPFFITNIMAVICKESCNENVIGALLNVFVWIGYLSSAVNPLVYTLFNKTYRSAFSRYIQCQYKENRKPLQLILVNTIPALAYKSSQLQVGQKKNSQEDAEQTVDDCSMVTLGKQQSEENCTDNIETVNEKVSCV

| pKi [1] | pKi [2] | pKi (D(2) dopamine receptor) | Log Ki [3] | SMILES | Activity (Rattus norvegicus) | Activity (Mus musculus) |
| --- | --- | --- | --- | --- | --- | --- |
| 6.41 | 6.99 | 7.82 | -6.92 | FC(F)(F)c1cccc(N2CCN(CCCOc3ccc4[nH]cnc4c3)CC2)c1 | – | – |
| 6.75 | 7.72 | 8.77 | -8.71 | COc1ccccc1N1CCN(CCCOc2ccc3[nH]c(=S)[nH]c3c2)CC1 | – | – |
| 7.00 | 6.50 | 6.44 | -6.31 | FC(F)(F)c1cccc(N2CCN(CCCOc3ccc4[nH]c(=S)[nH]c4c3)CC2)c1 | – | – |
| 6.19 | 7.86 | 7.12 | -7.58 | c1ccc(N2CCN(CCCOc3ccc4[nH]cnc4c3)CC2)cc1 | Not Active | Active |
| 7.82 | 7.10 | 8.06 | -8.23 | COc1ccccc1N1CCN(CCCOc2ccc3[nH]cnc3c2)CC1 | – | – |
| 6.03 | 8.69 | 7.38 | -7.53 | S=c1[nH]c2ccc(OCCCN3CCN(c4ccccc4)CC3)cc2[nH]1 | Not Active | Active |

| SMILES | pKi [1] | pKi [2] | pKi (D(2) dopamine receptor) | Log Ki [3] | Activity (Rattus norvegicus) | Activity (Mus musculus) |
| --- | --- | --- | --- | --- | --- | --- |
| CN1CCN(C2=Nc3cc(Cl)ccc3Nc3ccccc32)CC1 [CLOZAPINE] | – | – | – | -7.65 | – | – |
